ChEMBL document CHEMBL5331107 (J Med Chem, 2023)

Tests used:
[1] = Acute toxicity in Kunming mouse assessed as effect on lethargy at 1000 mg/kg, IG administered as single dose and measured after 7 days; type: organism-based; settings: in vivo, po, 168 h, time 7 day
[2] = tested on: Human immunodeficiency virus 1; type: functional, organism-based; settings: Human immunodeficiency virus 1, MT4, 120 h
[3] = tested on: Human immunodeficiency virus 1; experiment: Antiviral activity against NNRTI-resistant HIV-1 harboring E138K mutant infected in human MT4 cells assessed as protection against virus-induced cytopathic effect incubated for 5 days by MTT assay; type: functional, organism-based; settings: Human immunodeficiency virus 1, MT4, 120 h
[4] = Subacute toxicity in Kunming mouse assessed as histopathological change in heart at 50 mg/kg, IG administered via gavage every other day and measured after 14 days by H&E staining based analysis; type: organism-based; settings: in vivo, po, 336 h, time 14 day
[5] = Tmax in Sprague-Dawley rat at 10 mg/kg, po measured at 15 to 720 min by LC-MS/MS analysis; type: ADME, organism-based; settings: in vivo, time 15-720 min
[6] = Half-life in Sprague-Dawley rat at 2 mg/kg, iv measured at 5 to 600 min by LC-MS/MS analysis; type: ADME, organism-based; settings: in vivo, time 5-600 min
[7] = Subacute toxicity in Kunming mouse assessed as histopathological change in spleen at 50 mg/kg, IG administered via gavage every other day and measured after 14 days by H&E staining based analysis; type: organism-based; settings: in vivo, po, 336 h, time 14 day
[8] = Metabolic stability in human plasma assessed as half-life incubated for 120 mins by LC-MS/MS analysis; type: ADME, cell-free
[9] = Acute toxicity in Kunming mouse assessed as effect on body weight at 1000 mg/kg, IG administered as single dose and measured after 7 days; type: organism-based; settings: in vivo, po, 168 h, time 7 day
[10] = Subacute toxicity in Kunming mouse assessed as histopathological change in liver at 50 mg/kg, IG administered via gavage every other day and measured after 14 days by H&E staining based analysis; type: organism-based; settings: in vivo, po, 336 h, time 14 day
[11] = Subacute toxicity in Kunming mouse assessed as anorexia at 50 mg/kg, IG administered via gavage every other day and measured after 14 days; type: organism-based; settings: in vivo, po, 336 h, time 14 day
[12] = tested on: Human immunodeficiency virus 1; experiment: microbe, parasite or virus in culture; settings: Human immunodeficiency virus 1, IIIB, MT4, 120 h
Description: Antiviral activity against wild type HIV-1 IIIB infected in human MT4 cells assessed as protection against virus-induced cytopathic effect incubated for 5 days by MTT assay

[13] = Metabolic stability in human liver assessed as intrinsic clearance incubated for 60 mins in the presence of NADPH by LC-MS/MS analysis; type: ADME, tissue-based; settings: read-out: CLH
[14] = Subacute toxicity in Kunming mouse assessed as alopecia at 50 mg/kg, IG administered via gavage every other day and measured after 14 days; type: organism-based; settings: in vivo, po, 336 h, time 14 day
[15] = MRT (0 to infinity) in Sprague-Dawley rat at 2 mg/kg, iv measured at 5 to 600 min by LC-MS/MS analysis; type: ADME, organism-based; settings: in vivo, time 5-600 min
[16] = AUC (0 to last) in Sprague-Dawley rat at 10 mg/kg, po measured at 15 to 720 min by LC-MS/MS analysis; type: ADME, organism-based; set-up: time upper 720 min, time lower 15 min, dose 10 mg/kg, route po; settings: in vivo
[17] = Metabolic stability in human liver microsomes assessed as compound remaining measured after 60 mins in the presence of NADPH by LC-MS/MS analysis; type: ADME, Microsome; settings: liver microsomes, read-out: Stability
[18] = Clearance in Sprague-Dawley rat at 2 mg/kg, iv measured at 5 to 600 min by LC-MS/MS analysis; type: ADME, organism-based; settings: in vivo, time 5-600 min
[19] = AUC (0 to infinity) in Sprague-Dawley rat at 10 mg/kg, po measured at 15 to 720 min by LC-MS/MS analysis; type: ADME, organism-based; set-up: dose 10 mg/kg, time upper 720 min, time lower 15 min, route po; settings: in vivo
[20] = tested on: Human immunodeficiency virus 1; experiment: Antiviral activity against NNRTI-resistant HIV-1 harboring K103N mutant infected in human MT4 cells assessed as protection against virus-induced cytopathic effect incubated for 5 days by MTT assay; type: functional, organism-based; settings: Human immunodeficiency virus 1, MT4, 120 h
[21] = Subacute toxicity in Kunming mouse assessed as effect on body weight at 50 mg/kg, IG administered via gavage every other day and measured after 14 days; type: organism-based; settings: in vivo, po, 336 h, time 14 day
[22] = Subacute toxicity in Kunming mouse assessed as lethargy at 50 mg/kg, IG administered via gavage every other day and measured after 14 days; type: organism-based; settings: in vivo, po, 336 h, time 14 day
[23] = Metabolic stability in human liver microsomes assessed as half-life incubated for 60 mins in the presence of NADPH by LC-MS/MS analysis; type: ADME, Microsome; settings: liver microsomes
[24] = Acute toxicity in Kunming mouse assessed as effect on dyspnea at 1000 mg/kg, IG administered as single dose and measured after 7 days; type: organism-based; settings: in vivo, po, 168 h, time 7 day
[25] = Subacute toxicity in Kunming mouse assessed as at 50 mg/kg, po administered every other day and measured after 14 days; type: organism-based; settings: in vivo, 336 h, time 14 day
[26] = tested on: Human immunodeficiency virus 1; experiment: Antiviral activity against NNRTI-resistant HIV-1 harboring F227L and V106A double mutant infected in human MT4 cells assessed as protection against virus-induced cytopathic effect incubated for 5 days by MTT assay; type: functional, organism-based; settings: Human immunodeficiency virus 1, MT4, 120 h
[27] = Acute toxicity in Kunming mouse assessed as effect on alopecia at 1000 mg/kg, IG administered as single dose and measured after 7 days; type: organism-based; settings: in vivo, po, 168 h, time 7 day
[28] = tested on: Human immunodeficiency virus 1; type: functional, organism-based; settings: Human immunodeficiency virus 1, MT4, 120 h; remark: listed apart in the source
[29] = tested on: Human immunodeficiency virus 1; experiment: Antiviral activity against NNRTI-resistant HIV-1 harboring L100I mutant infected in human MT4 cells assessed as protection against virus-induced cytopathic effect incubated for 5 days by MTT assay; type: functional, organism-based; settings: Human immunodeficiency virus 1, MT4, 120 h
[30] = Subacute toxicity in Kunming mouse assessed as histopathological change in kidney at 50 mg/kg, IG administered via gavage every other day and measured after 14 days by H&E staining based analysis; type: organism-based; settings: in vivo, po, 336 h, time 14 day
[31] = Metabolic stability in human liver microsomes assessed as intrinsic clearance incubated for 60 mins in the presence of NADPH by LC-MS/MS analysis; settings: liver microsomes
[32] = Metabolic stability in human plasma assessed as compound remaining incubated for 120 mins by LC-MS/MS analysis; type: ADME, cell-free; settings: read-out: Stability
[33] = target: Human immunodeficiency virus type 1 reverse transcriptase (Human immunodeficiency virus 1, UniProt Q72547); experiment: Inhibition of HIV-1 reverse transcriptase assessed as assessed as reduction of biotin-dUTP incorporation into […] incubated for 1 hrs by ELISA analysis
[34] = Acute toxicity in Kunming mouse assessed as effect on animal death at 1000 mg/kg, IG administered as single dose and measured after 7 days; type: organism-based; settings: in vivo, po, 168 h, time 7 day
[35] = Subacute toxicity in Kunming mouse assessed as histopathological change in lung at 50 mg/kg, IG administered via gavage every other day and measured after 14 days by H&E staining based analysis; type: organism-based; settings: in vivo, po, 336 h, time 14 day
[36] = Subacute toxicity in Kunming mouse assessed as dyspnoea at 50 mg/kg, IG administered via gavage every other day and measured after 14 days; type: organism-based; settings: in vivo, po, 336 h, time 14 day
[37] = AUC(0 to infinity) in Sprague-Dawley rat at 2 mg/kg, iv measured at 5 to 600 min by LC-MS/MS analysis; type: ADME, organism-based; set-up: time 5-600 min, dose 2 mg/kg, route iv; settings: in vivo
[38] = tested on: Human immunodeficiency virus 1; type: functional, organism-based; settings: Human immunodeficiency virus 1, MT4, 120 h; remark: listed apart in the source
[39] = MRT (0 to last) in Sprague-Dawley rat at 2 mg/kg, iv measured at 5 to 600 min by LC-MS/MS analysis; type: ADME, organism-based; settings: in vivo, time 5-600 min
[40] = Subacute toxicity in Kunming mouse assessed as animal death at 50 mg/kg, IG administered via gavage every other day and measured after 14 days; type: organism-based; settings: in vivo, po, 336 h, time 14 day
[41] = Acute toxicity in Kunming mouse assessed as tolerance at 1000 mg/kg, IG administered as single dose and measured after 7 days; type: organism-based; settings: in vivo, po, 168 h, time 7 day
[42] = Cmax in Sprague-Dawley rat at 10 mg/kg, po measured at 15 to 720 min by LC-MS/MS analysis; type: ADME, organism-based; set-up: dose 10 mg/kg, time 15-720 min, route po; settings: in vivo
[43] = MRT (0 to infinity) in Sprague-Dawley rat at 10 mg/kg, po measured at 15 to 720 min by LC-MS/MS analysis; type: ADME, organism-based; settings: in vivo, time 15-720 min
[44] = AUC(0 to last) in Sprague-Dawley rat at 2 mg/kg, iv measured at 5 to 600 min by LC-MS/MS analysis; type: ADME, organism-based; set-up: dose 2 mg/kg, time upper 600 min, time lower 5 min, route iv; settings: in vivo
[45] = Volume of distribution in Sprague-Dawley rat at 2 mg/kg, iv measured at 5 to 600 min by LC-MS/MS analysis; type: ADME, organism-based; settings: in vivo, time 5-600 min
[46] = Acute toxicity in Kunming mouse upto 1000 mg/kg, IG administered as single dose and measured after 7 days; type: organism-based; settings: in vivo, po, 168 h, time 7 day
[47] = Cytotoxicity against human MT4 cells assessed as reduction in cell viability incubated for 5 days by MTT assay; type: toxicity, cell-based; settings: time 5 day
[48] = Acute toxicity in Kunming mouse assessed as effect on anorexia at 1000 mg/kg, IG administered as single dose and measured after 7 days; type: organism-based; settings: in vivo, po, 168 h, time 7 day
[49] = Half-life in Sprague-Dawley rat at 10 mg/kg, po measured at 15 to 720 min by LC-MS/MS analysis; type: ADME, organism-based; settings: in vivo, time 15-720 min

SMILES: CCC(=O)N1CCc2nc(Nc3ccc(C#N)cc3)nc(Oc3c(C)cc(C#N)cc3C)c2C1
- Activity [1]: Non-Toxic
- EC50 [2]: 0.0109 µM
- EC50 [3]: 0.011 µM
- Activity [4]: Non-Toxic
- Tmax [5]: 30 min
- half-life [6]: 56.5 min
- Activity [7]: Non-Toxic
- half-life [8]: > 289 min
- Activity [9]: Non-Toxic
- Activity [10]: Non-Toxic
- Activity [11]: Non-Toxic
- EC50 [12]: 0.00271 µM
- CLint scaled [13]: 125 mL/min/kg
- Activity [14]: Non-Toxic
- MRT inf [15]: 39.8 min
- AUC(0-t) [16]: 16 ng·h/mL
- remaining at 1 h [17]: 1.6%
- clearance [18]: 19.4 mL/min/kg
- AUC(0-inf) [19]: 23.4 ng·h/mL
- EC50 [20]: 0.00188 µM
- Activity [21]: Non-Toxic
- Activity [22]: Non-Toxic
- half-life [23]: 10 min
- Activity [24]: Non-Toxic
- Activity [25]: Non-Toxic
- EC50 [26]: 0.0388 µM
- Activity [27]: Non-Toxic
- EC50 [28]: 0.0149 µM
- EC50 [29]: 0.0146 µM
- Activity [30]: Non-Toxic
- microsomal CLint at 1 h [31]: 138 µL/min/mg
- remaining at 2 h [32]: 97.1%
- IC50 [33]: 0.07 µM
- Activity [34]: Non-Toxic
- Activity [35]: Non-Toxic
- Activity [36]: Non-Toxic
- AUC(0-inf) [37]: 1740 ng·h/mL
- EC50 [38]: 0.031 µM
- MRT last [39]: 38.9 min
- Activity [40]: Non-Toxic
- Activity [41]: Non-Toxic
- Cmax [42]: 7.71 ng/mL
- MRT inf [43]: 214 min
- AUC(0-t) [44]: 1730 ng·h/mL
- Vd [45]: 0.771 L/kg
- Activity [46]: Non-Toxic
- CC50 at 120 h [47]: 10.8 µM
- Activity [48]: Non-Toxic
- half-life [49]: 142 min
